How the values were obtained:
cataracts in rats = assay: Prevention or retardation of cataracts in galactose-fed rats; assay type: in vivo, rat; settings: for % of Total Eyes, S (snowflake) / Number of Eyes Observed, + (vacuole) / Number of Eyes Observed, - (Normal) / Number of Eyes Observed, N (nuclear cataract) / Number of Eyes Observed, S (snowflake) / Number of Eyes Observed, ± / % of Total Eyes, + (vacuole) / % of Total Eyes, - (Normal) / % of Total Eyes, N (nuclear cataract): 30% galactose diet, A,C,E 0.0025%, B,D 0.01%
In short: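 Rats given test compound mixed into diet (by % of total feed weight; 0.01% designed to supply 20 mg/kg/day) ad libitum for thirty days after a two-day chow acclimatization, twelve animals per treatment. Eyes examined by handheld ophthalmoscope and/or penlight and each eye graded.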

aldose reductase = assay: Aldose reductase inhibition / potency (general statement)

dl-spiro-(6-methylthio-chroman-4,4'-imidazolidine)-2',5'-dione
% of Total Eyes, S (snowflake) (cataracts in rats; Study Day 14): 58.4% | Number of Eyes Observed, + (vacuole) (cataracts in rats; Study Day 14): 10 eyes | Number of Eyes Observed, - (Normal) (cataracts in rats; Study Day 14): 0 eyes | Number of Eyes Observed, N (nuclear cataract) (cataracts in rats; Study Day 14): 0 eyes | Number of Eyes Observed, S (snowflake) (cataracts in rats; Study Day 14): 14 eyes | Number of Eyes Observed, ± (cataracts in rats; Study Day 14): 0 eyes | % of Total Eyes, + (vacuole) (cataracts in rats; Study Day 16): 37.5% | % of Total Eyes, - (Normal) (cataracts in rats; Study Day 16): 0% | % of Total Eyes, N (nuclear cataract) (cataracts in rats; Study Day 16): 0% | % of Total Eyes, S (snowflake) (cataracts in rats; Study Day 16): 62.5% | Number of Eyes Observed, + (vacuole) (cataracts in rats; Study Day 16): 9 eyes | Number of Eyes Observed, - (Normal) (cataracts in rats; Study Day 16): 0 eyes | Number of Eyes Observed, N (nuclear cataract) (cataracts in rats; Study Day 16): 0 eyes | Number of Eyes Observed, S (snowflake) (cataracts in rats; Study Day 16): 15 eyes | Number of Eyes Observed, ± (cataracts in rats; Study Day 16): 0 eyes | % of Total Eyes, + (vacuole) (cataracts in rats; Study Day 18): 25.0% | % of Total Eyes, - (Normal) (cataracts in rats; Study Day 18): 0% | % of Total Eyes, N (nuclear cataract) (cataracts in rats; Study Day 18): 0% | % of Total Eyes, S (snowflake) (cataracts in rats; Study Day 18): 75.0% | Number of Eyes Observed, + (vacuole) (cataracts in rats; Study Day 18): 6 eyes | Number of Eyes Observed, - (Normal) (cataracts in rats; Study Day 18): 0 eyes | Number of Eyes Observed, N (nuclear cataract) (cataracts in rats; Study Day 18): 0 eyes | Number of Eyes Observed, S (snowflake) (cataracts in rats; Study Day 18): 0 eyes | Number of Eyes Observed, ± (cataracts in rats; Study Day 18): 0 eyes | % of Total Eyes, + (vacuole) (cataracts in rats; Study Day 20): 20.8% | % of Total Eyes, - (Normal) (cataracts in rats; Study Day 20): 0% | % of Total Eyes, N (nuclear cataract) (cataracts in rats; Study Day 20): 0% | % of Total Eyes, S (snowflake) (cataracts in rats; Study Day 20): 79.2% | Number of Eyes Observed, + (vacuole) (cataracts in rats; Study Day 20): 5 eyes | Number of Eyes Observed, - (Normal) (cataracts in rats; Study Day 20): 0 eyes | Number of Eyes Observed, N (nuclear cataract) (cataracts in rats; Study Day 20): 0 eyes | Number of Eyes Observed, S (snowflake) (cataracts in rats; Study Day 20): 19 eyes | Number of Eyes Observed, ± (cataracts in rats; Study Day 20): 0 eyes | % of Total Eyes, + (vacuole) (cataracts in rats; Study Day 22): 8.3% | % of Total Eyes, - (Normal) (cataracts in rats; Study Day 22): 0% | % of Total Eyes, N (nuclear cataract) (cataracts in rats; Study Day 22): 4.2% | % of Total Eyes, S (snowflake) (cataracts in rats; Study Day 22): 87.5% | Number of Eyes Observed, + (vacuole) (cataracts in rats; Study Day 22): 2 eyes | Number of Eyes Observed, - (Normal) (cataracts in rats; Study Day 22): 0 eyes | Number of Eyes Observed, N (nuclear cataract) (cataracts in rats; Study Day 22): 1 eyes | Number of Eyes Observed, S (snowflake) (cataracts in rats; Study Day 22): 21 eyes | Number of Eyes Observed, ± (cataracts in rats; Study Day 22): 0 eyes | % of Total Eyes, + (vacuole) (cataracts in rats; Study Day 24): 4.2% | % of Total Eyes, - (Normal) (cataracts in rats; Study Day 24): 0% | % of Total Eyes, N (nuclear cataract) (cataracts in rats; Study Day 24): 4.2% | % of Total Eyes, S (snowflake) (cataracts in rats; Study Day 24): 91.7% | Number of Eyes Observed, + (vacuole) (cataracts in rats; Study Day 24): 1 eyes | Number of Eyes Observed, - (Normal) (cataracts in rats; Study Day 24): 0 eyes | Number of Eyes Observed, N (nuclear cataract) (cataracts in rats; Study Day 24): 1 eyes | Number of Eyes Observed, S (snowflake) (cataracts in rats; Study Day 24): 22 eyes | Number of Eyes Observed, ± (cataracts in rats; Study Day 24): 0 eyes | % of Total Eyes, + (vacuole) (cataracts in rats; Study Day 26): 0% | % of Total Eyes, - (Normal) (cataracts in rats; Study Day 26): 0% | % of Total Eyes, N (nuclear cataract) (cataracts in rats; Study Day 26): 4.2% | % of Total Eyes, S (snowflake) (cataracts in rats; Study Day 26): 95.8% | Number of Eyes Observed, + (vacuole) (cataracts in rats; Study Day 26): 0 eyes | Number of Eyes Observed, - (Normal) (cataracts in rats; Study Day 26): 0 eyes | Number of Eyes Observed, N (nuclear cataract) (cataracts in rats; Study Day 26): 1 eyes | Number of Eyes Observed, S (snowflake) (cataracts in rats; Study Day 26): 23 eyes | Number of Eyes Observed, ± (cataracts in rats; Study Day 26): 0 eyes | % of Total Eyes, + (vacuole) (cataracts in rats; Study Day 28): 0% | % of Total Eyes, - (Normal) (cataracts in rats; Study Day 28): 0% | % of Total Eyes, N (nuclear cataract) (cataracts in rats; Study Day 28): 12.5% | % of Total Eyes, S (snowflake) (cataracts in rats; Study Day 28): 87.5% | Number of Eyes Observed, + (vacuole) (cataracts in rats; Study Day 28): 0 eyes | Number of Eyes Observed, - (Normal) (cataracts in rats; Study Day 28): 0 eyes | Number of Eyes Observed, N (nuclear cataract) (cataracts in rats; Study Day 28): 3 eyes | Number of Eyes Observed, S (snowflake) (cataracts in rats; Study Day 28): 21 eyes | Number of Eyes Observed, ± (cataracts in rats; Study Day 28): 0 eyes | % of Total Eyes, + (vacuole) (cataracts in rats; Study Day 30): 0% | % of Total Eyes, - (Normal) (cataracts in rats; Study Day 30): 0% | % of Total Eyes, N (nuclear cataract) (cataracts in rats; Study Day 30): 16.7% | % of Total Eyes, S (snowflake) (cataracts in rats; Study Day 30): 83.3% | Number of Eyes Observed, + (vacuole) (cataracts in rats; Study Day 30): 0 eyes | Number of Eyes Observed, - (Normal) (cataracts in rats; Study Day 30): 0 eyes | Number of Eyes Observed, N (nuclear cataract) (cataracts in rats; Study Day 30): 4 eyes | Number of Eyes Observed, S (snowflake) (cataracts in rats; Study Day 30): 20 eyes | Number of Eyes Observed, ± (cataracts in rats; Study Day 30): 0 eyes | inhibitory capacity relative to diastereomeric mixture of 6-sulfinyl derivative (cataracts in rats; fold greater): 1.5 | time to vacuole formation, 0.0025% methylthio versus 0.01% sulfinyl (cataracts in rats; methylthio 0.0025%, sulfinyl 0.01% in diet): not different from each other | potency relative to the resolved 6-fluoro compound (aldose reductase): potency similar to the resolved 6-fluoro compound
